Structures are written as SMILES. Activity calls are given as the source filed them. The calls are words filed in the database; no cut-off is given here.

The subject of one assay is Rattus norvegicus. The assay can be described thus: Antiallergic activity in sc dosed Wistar rat assessed as inhibition of passive cutaneous anaphylaxis at Tmax. Format: functional.
Broadly, the ED50 is the dose that gives a 50% effect, or the effect in half of the subjects. Turning to `Cc1cc2c(cc1C)C(=O)C([N+](=O)[O-])=C(O)C2=O`, the ED50 worked out at 11 µmol/kg.

For the compound `O=C1C(O)=C([N+](=O)[O-])C(=O)c2cc3c(cc21)CCCC3`, the ED50 was found to be 7.3 µmol/kg. With `O=C1C(O)=C([N+](=O)[O-])C(=O)c2ccc(Br)cc21`, the ED50 was above 500 µmol/kg. `O=C1C([N+](=O)[O-])=C(O)C(=O)c2c(O)cccc21`: the ED50 was above 500 µmol/kg. Turning to `COc1cc2c(cc1OC)C(=O)C([N+](=O)[O-])=C(O)C2=O`, the ED50 was 42.8 µmol/kg.

For the compound `Cc1ccc2c(c1)C(=O)C(O)=C([N+](=O)[O-])C2=O`, the ED50 turned out to be 181 µmol/kg. Same read-out and setting: in the case of `COc1ccc2c(c1)C(=O)C(O)=C([N+](=O)[O-])C2=O` it was 51.3 µmol/kg; in that of `O=C1C(O)=C([N+](=O)[O-])C(=O)c2ccccc21`, 141 µmol/kg; in that of `O=C1C(O)=C([N+](=O)[O-])C(=O)c2ccc(-c3ccccc3)cc21`, above 500 µmol/kg. For `Cc1cccc2c1C(=O)C(O)=C([N+](=O)[O-])C2=O`, the ED50 amounted to 76.2 µmol/kg. Regarding `CCc1cc2c(cc1CC)C(=O)C([N+](=O)[O-])=C(O)C2=O`, the ED50 was determined as 27.3 µmol/kg. For the compound `CCOc1ccc2c(c1)C(=O)C(O)=C([N+](=O)[O-])C2=O`, the ED50 stood at 68.2 µmol/kg. `O=C1C(O)=C([N+](=O)[O-])C(=O)c2ccc(F)cc21`: the ED50 is above 500 µmol/kg. Turning to `O=C(O)c1cc(=O)c2c(OCC(O)COc3cccc4oc(C(=O)O)cc(=O)c34)cccc2o1` [CROMOLYN SODIUM], the ED50 turned out to be 13.1 µmol/kg. `Cc1ccc2c(c1)C(=O)C([N+](=O)[O-])=C(O)C2=O`: the ED50 stood at 63.9 µmol/kg.

In the next assay the test system is Rattus norvegicus. The assay is described as follows: Antiallergic activity in po dosed Wistar rat assessed as inhibition of passive cutaneous anaphylaxis administered 10 mins prior to antigen-challenge. Format: functional.
In the case of `Cc1cc2c(cc1C)C(=O)C([N+](=O)[O-])=C(O)C2=O`, the ED50 was 100 µmol/kg.

For the compound `O=C1C(O)=C([N+](=O)[O-])C(=O)c2cc3c(cc21)CCCC3`, the ED50 is 100 µmol/kg.

In the next assay the test system is Rattus norvegicus. The assay is described as follows: Antiallergic activity in Wistar rat assessed as inhibition of passive cutaneous anaphylaxis up to 500 uM/kg, sc. Format: functional, organism-based.
As to `CC1(C)C(=O)C([N+](=O)[O-])=C(O)c2ccccc21`, the inhibition result is “inactive”. On the same count and under the same terms, to `Cc1cccc2c1C(C)(C)C(=O)C([N+](=O)[O-])=C2O` belongs “inactive”. On to `Cc1ccc2c(c1)C(O)=C([N+](=O)[O-])C(=O)C2(C)C`, for which the inhibition result was “inactive”. As for `Cc1c(O)c([N+](=O)[O-])c(O)c2ccccc12`, the inhibition result is “inactive”.

For the origin of these results see ChEMBL document CHEMBL3244207, “Synthesis and antiallergic activity of 2-hydroxy-3-nitro-1,4-naphthoquinones” (1977).
